The subject of experiment [1] is human umbilical vein endothelial cells (HUVECs) co-cultured with normal human dermal fibroblasts (NHDF). Briefly: Anti-angiogenesis: capillary-tube formation assay (Kurabo angiogenesis kit). The settings on record: HUVEC tube formation inhibition, HUVEC/NHDF co-culture, 11 d, 1-100 μM. Type of experiment: cell-based. As to the method: Capillary-tube formation was assayed using the angiogenesis kits (Kurabo, Okayama, Japan) according to the manufacturer's instruction. Briefly, human umbilical vein endothelial cells (HUVECs) co-cultured with normal human dermal fibroblasts (NHDF), which a cultural kit originally developed by Kurabo Co. Ltd., Okayama, Japan, onto 24-well plate were incubated either with or without test compounds and resveratrol respectively at appropriate concentrations (1-100 μM) for 11 d (media replacement was performed at d 1, 4, 7, and 9). The cells were thereafter fixed with 70% cold ethanol, incubated with mouse antihuman CD31 antibody followed by incubation with an alkaline phosphatase conjugate goat antimouse antibody, and then stained with 5-bromo-4-chloro-3-indolyl phosphate/nitro blue tetrazolium to visualize tube network at d-11, respectively. In each assay, randomly selected five fields of view in each well were captured by digital camera under the light microscopy on ×40 magnification. The analysis of tube formation was then carried out by measuring total area and length of tubes per well using analytical software (by Kurabo).

Experiment [2] deals with RAW 264.7 macrophage cell line (LPS-stimulated NO production). The experiment in a line: Nitric oxide inhibition: nitrite quantification with Griess reagent in LPS-stimulated macrophage cells. It counts as cell-based, mouse. The settings on record: nitrite in supernatant of LPS (100 ng/ml)-stimulated RAW 264.7 cells, 24 h, lowest tested concentration 25 μM. An excerpt: The mouse BALB/c macrophage cell line, RAW 264.7 BCRC No. 60001 (identical to ATCC number TIB-71), was obtained from Bioresource Collection and Research Center, Taiwan. The cells were maintained according to the protocols being cultured in 50 cm^2 plastic flasks (Nunc, Roskilde, Denmark) with the medium renewed every 3 days. LPS (from Escherichia coli, serotype 0127:B8), trypan blue and all the other chemicals, unless otherwise specified, were purchased from Aldrich-Sigma Chemical Company (St. Louis, Mo., USA).
The cells were cultured with or without a pretreatment by the test compounds and resveratrol of 25, 50, 100, and up to 200 μM as already described. Each value is the mean±SEM of three determinations. *p<0.05, each value was compared with or without the LPS-stimulated group.
The production of NO was determined by measuring the accumulated level of nitrite in the culture supernatant with the Griess reagent in LPS-stimulated macrophage cells. A quantity of 100 μl of a sample aliquot were mixed with 100 μl of the Griess reagent (0.1% N-(1-naphthyl)ethylenediamine, 1% sulfanilamide, and 2.5% phosphoric acid) in a 96-well plate and then incubated at 25° C. for 10 min. The absorbance at 550 nm was measured with an ELISA reader (MR 700, Dynatech Laboratories, Alexandria, Va., USA). NaNO2 was used as the standard to calculate the nitrite concentration.
(The Griess reaction detects nitrite, a stable product of nitric oxide.)

Experiment [3] concerns λ-carrageenan-induced paw edema in Wistar rats. The experiment in a line: In-vivo carrageenan-induced paw edema study. As to conditions: rat, 20 mg/kg i.p. single dose in CMC, 5 h after carrageenan. As to the method: In this study, X-carrageenan was used to stimulate the inflammation on the rear footpad of the rats. Male albino Wistar rats (183-218 g) 4 to 6 weeks old were housed and cared under the guidelines of the Institutional Animal Care and Use Committee at the National Defense Medical Center, Taiwan. The rats were assigned to groups. For each group, 3 rats were used and marked on the tails. one of them being the control. In order to induce inflammation, 50 μl of a 1% λ-carrageenan solution in normal saline was injected into the right hind paw subplantar tissue. The development of paw edema was measured plethysmographically (Basile 7140 plethysmometer, Ugo, Varese, Italy) and recorded prior to this administration. […] Before carrageenan treatment, the volume of each […] footpad was measured (V0). […] After the λ-carrageenan challenge, each paw volume (ml) was measured hourly up to 5 h. The percentage of paw edema and the inhibition of inflammation were calculated. Edema rate (E %) was calculated as follows: E%=(Vt-V0)/V0×100; V0: volume of hind paw before 1% λ-carrageenan administration; Vt: volume of hind paw after 1% carrageenan administration at t h. Percentage of inhibition (1%) was determined as follows: 1%(Ec-Et)/Ec×100; Ec: edema rate of control group; Et: edema rate of the respective test compound at t h. […]
A general note: The carrageenan paw model is a standard test of acute inflammation.

Broadly, the IC50 is the concentration needed to halve the response being measured. Read a high IC50 as weaker potency. On to `CC[n+]1c(/C=C/c2ccc(OC)cc2O)sc2ccccc21` [Compound 3, N-Ethyl-2-[(E)-2-(2′-hydroxy-4′-methoxyphenyl)vinyl]benzothiazolium bromide], for which the IC50 was 31.2 ± 2 µM in experiment [1] and below 25 µM in experiment [2].

Take `CC[n+]1c(/C=C/c2cc(OC)c(O)c(OC)c2)sc2ccccc21` [Compound 5, N-Ethyl-2-[(E)-2-(3′,5′-dimethoxy-4′-hydroxyphenyl)vinyl]benzothiazolium bromide]: the IC50 is 21.2 ± 1.6 µM in experiment [1] and below 25 µM in experiment [2].

For the molecule `CC[n+]1c(/C=C/c2ccc(O)c(OC)c2)sc2ccccc21` [Compound 6, N-Ethyl-2-[(E)-2-(4′-hydroxy-3′-methoxyphenyl)vinyl]benzothiazolium bromide], the figures for the 50% inhibitory concentration (IC50) in experiment [1] and in experiment [2] were 19.9 ± 2.3 µM and below 25 µM, respectively.

Consider `Oc1ccc(/C=C/c2cc(O)cc(O)c2)cc1` [Resveratrol (1), 3,5,4′-trihydroxy-trans-stilbene, reference compound], for which the IC50 came to 47.7 ± 1.1 µM in experiment [1] (Homo sapiens, 264 h) and 40 µM in experiment [2] (Mus musculus, RAW264.7).

Take “N-Ethyl-2-[(E)-2-(3′,4′,5′-trimethoxyphenyl)vinyl]benzothiazolium bromide [Compound 4]”: the IC50 in experiment [1] was 18.8 ± 1.3 µM; in experiment [2], below 25 µM. Moreover, in experiment [3], the “Percentage of inhibition of paw edema” value was determined as 69.5%. Also, the “paw edema (increase of paw volume)” value in experiment [3] (p<0.05) was 0.21 ± 0.06 mL.
